The text below walks through data of PubChem BioAssay AID726 (The Scripps Research Institute Molecular Screening Center, 2007).

The source made the active and inactive calls.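 The calls were made as follows: active = EC50 at or below 10 µM, fitted or read by hand from inhibition at single concentrations; inactive = EC50 above 10 µM.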 A value given as a limit tells only on which side of the number the result lay.

5-hydroxytryptamine receptor 1E (Homo sapiens), sequence (P28566 whole entry, looked up): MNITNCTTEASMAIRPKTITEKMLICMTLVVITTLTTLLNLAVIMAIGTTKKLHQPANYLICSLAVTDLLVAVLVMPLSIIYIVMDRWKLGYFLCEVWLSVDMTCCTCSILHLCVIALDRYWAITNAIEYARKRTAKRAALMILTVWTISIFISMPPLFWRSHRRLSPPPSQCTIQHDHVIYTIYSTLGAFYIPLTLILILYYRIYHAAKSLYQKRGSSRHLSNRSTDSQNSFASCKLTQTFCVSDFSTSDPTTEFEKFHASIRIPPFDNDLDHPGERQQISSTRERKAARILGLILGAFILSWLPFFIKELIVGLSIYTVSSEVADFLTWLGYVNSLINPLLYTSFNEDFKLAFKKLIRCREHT

The assay has as its target 5-hydroxytryptamine receptor 1E (Homo sapiens) (UniProt P28566). In words: activation of human 5HT1E serotonin receptor – cell-based, dose response (AID 726). As to conditions: CHO 5-HT1E/Ga15 NFAT-bla, FRET reporter.
Consider `COc1ccc(N(CC(=O)NC2CCCC2)C(=O)Cn2nnc(-c3ccc(C)cc3)n2)cc1OC`, for which the EC50 was > 50000 nM (inactive).

With `CCOC(=O)c1cc2ccc(OC(=O)c3ccco3)cc2oc1=O`, the EC50 was 7500 nM.

Consider `CCOC(=O)C1CCN(C(c2cccnc2)c2c(NC(=O)c3ccco3)sc(C)c2C)CC1` (centres undefined), for which the EC50 was > 50000 nM (inactive).

For `COc1ccc(CN2CCN(c3ccccc3F)CC2)c(OC)c1`, the EC50 is > 50000 nM (inactive).

With `Cc1[nH]c2c(Cl)cccc2c1CCN`, the EC50 was 677 nM.

In the case of `Cc1noc(C)c1COc1ccc(C(=O)OC(C)C(=O)Nc2ccc(N3CCOCC3)cc2)cc1` (centres undefined), the EC50 is > 50000 nM (inactive).

As for `c1ccc(N2CCN(Cc3cn4cccnc4n3)CC2)cc1`, the EC50 was 1070 nM.

`NCCc1c[nH]c2ccc(F)cc12`: the EC50 was 484 nM.

For `CCc1ccc(NC(=O)Cn2c(SC)nc3ccccc32)cc1`, the EC50 was > 50000 nM (inactive).

`O=C(Nc1cccc(-c2cn3ccsc3n2)c1)c1ccccc1`: the EC50 was > 50000 nM (inactive).

In the case of `Cc1[nH]c2c(C(F)(F)F)cccc2c1CCN`, the EC50 was 817 nM.

Regarding `CCN1CC=C(c2c[nH]c3ccccc23)CC1`, the EC50 was 23.9 nM.

As to `CN(C)CCOC(=O)c1cn(Cc2ccccc2)c2ccccc12`, the EC50 was 493 nM.

Turning to `O=S(=O)(c1cccc(Cl)c1)N1CCCC1`, the EC50 is > 50000 nM (inactive).

With `CC(CCc1ccccc1)NC(=O)CSc1nc(N)cc(N)n1` (centres undefined), the EC50 is > 50000 nM (inactive).

As to `CCCCc1ccc2[nH]cc(CCN)c2c1`, the EC50 was 11.3 nM.

In the case of `c1ccc2sc(C3CCCNC3)nc2c1` (centres undefined), the EC50 is 186 nM.

As for `CCCCN(C)CCCNC(=O)Cn1c(=O)sc2ccccc21`, the EC50 is 3500 nM.

For `CN1CC=C(c2c[nH]c3ccccc23)CC1`, the EC50 is 6.78 nM.

On to `Cn1c(-c2ccccc2)cnc1SCc1nc2ccccc2c(=O)[nH]1`, for which the EC50 is > 50000 nM (inactive).

Regarding `CC[C@@H](CO)NC(=O)[C@@H]1C=C2c3cccc4c3c(cn4C)C[C@H]2N(C)C1`, the EC50 is 37.5 nM.

For `CC1CN(c2nnnn2-c2ccccc2)CC(C)O1` (centres undefined), the EC50 was > 50000 nM (inactive).

`Cc1cc(C(C)(C)C)cc(C)c1CC1=NCCN1`: the EC50 is 87 nM.

For `Cc1cccc(N2CCN(C(=O)Cc3c(C(=O)O)[nH]c4ccc(Cl)cc34)CC2)c1C`, the EC50 was > 50000 nM (inactive).

On to `CN1CCN2c3ccccc3Cc3ccccc3C2C1` (centres undefined), for which the EC50 was 37.8 nM.

In the case of `Cc1cc(C(C)(C)C)c(O)c(C)c1CC1=NCCN1`, the EC50 is 99 nM.

As for `CCOC(=O)C1=C(C)NC(=O)NC1c1ccc(OCC(=O)Nc2ccccc2)c(OC)c1` (centres undefined), the EC50 was > 50000 nM (inactive).

For `CN(C)CCCn1c(NC(=O)C2CCCCC2)nc2ccccc21`, the EC50 is 469 nM.

Regarding `CCOC(=O)c1c(C)nc(-c2ccccc2)nc1NC(=O)CC`, the EC50 was > 50000 nM (inactive).

In the case of `CN1CCN(/C(=N\O)c2nonc2N)CC1`, the EC50 was 1170 nM.

With `CSc1nc2ccc(NC(=O)C3CCCO3)cc2s1` (centres undefined), the EC50 was > 50000 nM (inactive).

Regarding `O=C(COC(=O)CCC1CCCC1)Nc1ccc(Cl)cn1`, the EC50 is > 50000 nM (inactive).

For the compound `C[N+]1=C2CCCCCN2C(O)(c2ccccc2)C1` (centres undefined), the EC50 is 1330 nM.

Turning to `CNCCc1c[nH]c2ccccc12`, the EC50 was 105 nM.

For the compound `CCCCN(CC)Cc1ccc(CNC(=O)Nc2ccc(OC)cc2OC)o1`, the EC50 is 1830 nM.

With `Cn1cc(/C(Cc2ccccc2)=N\O)c2ccccc21`, the EC50 was > 50000 nM (inactive).

Consider `CCc1nn(C(C)C(=O)NCCN2CCN(c3cccc(C)c3C)CC2)c(=O)c2cc3occc3n12` (centres undefined), for which the EC50 was 2320 nM.

For `CCN(CC)c1nc(N2CCOCC2)c(C#N)c2c1CN(C)CC2`, the EC50 is 1750 nM.

`O=C(O)C1CCCCC1C(=O)NCCc1c[nH]c2ccccc12` (centres undefined): the EC50 is 765 nM.

As for `CCOC(=O)C1CCN(C(=O)Cc2c(C(=O)O)n(C)c3ccccc23)CC1`, the EC50 was > 50000 nM (inactive).

For `CCOC(=O)c1oc2ccccc2c1NC(=O)c1cc(OC)cc(OC)c1`, the EC50 was > 50000 nM (inactive).

Turning to `C1=C(c2c[nH]c3ccccc23)CCNC1`, the EC50 is 15.7 nM.

For the compound `Cc1c(CN2CCN(c3cccc(C(F)(F)F)c3)CC2)c(=O)n(-c2ccccc2)n1C`, the concentration for a half-maximal effect (EC50) is 1840 nM.

On to `CC(=O)Nc1ccc(S(=O)(=O)N(C)c2ccc(O)cc2)cc1`, for which the EC50 is > 50000 nM (inactive).

As for `COC(=O)CC(=O)Cc1nc(N)nc(Nc2ccc(C)c(C)c2)n1`, the EC50 is > 50000 nM (inactive).

For `Cc1cccc(NC(=O)C2CCCN(C(=O)Nc3ccccc3)C2)c1C` (centres undefined), the EC50 was > 50000 nM (inactive).

Turning to `O=C(NCc1ccccc1)NC1(C(=O)N2CCCC2)CCCCC1`, the EC50 is > 50000 nM (inactive).

For `COc1cc(CN2CCN(c3cccc(C)c3C)CC2)cc(OC)c1O`, the EC50 is > 50000 nM (inactive).

Take `Cc1[nH]c2ccccc2c1C1=CCNCC1`: the EC50 was 194 nM.
